Source: patent US8741932B2, “Imidazopyridine derivatives” (Piramal Enterprises Limited, priority 2009, dated 2014)
pIC50: −log10 of the molar value.

Legend:
Type in all cases: cell-based
IL-6 [1] = assay: Synovial tissue assay, IL-6; conditions: Homo sapiens; synovial tissue cells from rheumatoid arthritis patients, 16 hours
Experimental: (§1) The assay was designed as in the reference, Lancet, 2(8657), 244-7, Jul.
(§2) Stock Solution: Compounds of the present invention were dissolved in DMSO to obtain a stock solution of 20 mM.
(§3) Synovial tissue was obtained from rheumatoid arthritis patients undergoing knee replacement surgery. The tissue was minced into small pieces and digested in RPMI medium containing 100 U/ml penicillin-G, 100 μg/ml streptomycin, 50 ng/ml amphotericin B (GIBCO; USA), 1.33 mg/ml collagenase Type I (Worthington Biochemical Corporation, New Jersey), 0.5 μg/ml DNAse Type I (Sigma Aldrich; St. Louis, Mo.) and 8.33 U/ml heparin (Biological E. Limited, India) for 3 hours at 37° C., 5% CO2. The digested tissue was filtered through a membrane (mesh size 70 micron; Sigma Aldrich). Subsequently, the cells were washed 3 times and resuspended in complete medium (RPMI supplemented with 5% FBS and 5% human serum-AB+) at a concentration of 1×10^6 cells/ml. All cell washes in this assay were performed using Rosewall Park Memorial Institute (RPMI)-1640 medium (JRH; Australia). For the experiment, 100 μl of cell suspension was added to the wells of a 96-well culture plate. Following cell plating, 100 μl of the culture medium and 1 μl of various concentrations (0.01, 0.03, 0.1, 0.3, 1, 3, 10, 30 and 100 μM) of the compounds of present invention dissolved in DMSO were added to the cells. The final concentration of DMSO was adjusted to 0.5%. For experimental purposes, 1 μl of […] concentrated solution of the compounds of present invention were dissolved in 200 μl cell suspension to achieve a final concentration of 0.01, 0.03, 0.1, 0.3, 1, 3, 10, 30 and 100 μM. The vehicle (0.5% DMSO) was used as control. 10 μM dexamethasone (Sigma Aldrich) or 1 μM 7-hydroxyfluorinide (7HF) were used as standards for the experiments. The plates were incubated for 16 hours at 37° C., 5% CO2. Subsequently, the supernatants were harvested and stored at −70° C. The amounts of TNF-α, IL-6 and interleukin-8 (IL-8) in the supernatants were assayed using OptiEIA ELISA sets, (BD BioSciences Pharmingen). The protocol followed was as per manufacturers instructions. […] The cytotoxicity of test compounds in synovial cells was assessed by MTS assay. Absorbance was measured at 490 nm. Percent cytotoxicity was calculated by the equation: % Cytotoxicity=(A−B)/A×100 where, A is the absorbance of cells treated with DMSO alone and B is the absorbance of cells treated with the test article.

CAPAN1 = assay: Cytotoxicity assay (propidium iodide), CAPAN1; conditions: Homo sapiens, CAPAN-1; CAPAN1 (C5b, pancreatic); 48 hours
Experimental: (§4) Cells from cell lines as mentioned in the table given below were seeded at a density of 3000 cells/well in a white opaque 96-well plate. Following incubation at 37° C./5% CO2 for a period of 18-24 hours, the cells were treated with various concentrations (stock solution was prepared in DMSO and subsequent dilutions were made in media as per ATCC guidelines) of the representative compounds of present invention (refer table 3) for a period of 48 hours. At the end of treatment, the spent culture medium was discarded, the cells were washed with 1×PBS and 200 μl of 7 μg/ml propidium iodide was added to each well. The plates were frozen at −70° C. for at least 24 hours. For analysis, the plates were brought to RT, allowed to thaw and were read in PolarStar fluorimeter with the fluorescence setting. The percentage of viable cells in the non treated set of wells was considered to be 100 and the percentage viability following treatment was calculated accordingly. IC50 values were calculated from graphs plotted using these percentages.

TNF-α [2] = assay: Synovial tissue assay, TNF-α; conditions: Homo sapiens; synovial tissue cells from rheumatoid arthritis patients, 16 hours
Experimental: as §1, §2, §3

TNF-α [3] = assay: Human monocyte assay, LPS-stimulated TNF-α; conditions: human monocytes, 1 μg/ml LPS, 5 hours
Experimental: The assay was designed as in the reference, Physiol.
Peripheral blood mononuclear cells (hPBMC) were harvested from human blood and suspended in RPMI 1640 culture medium containing 10% FCS, 100 U/mL penicillin and […] streptomycin (assay medium). Monocytes in the hPBMCs were counted using a Coulter Counter following which the cells were resuspended at 2×10^5 monocytes/mL. A cell suspension containing 2×10^4 monocytes was aliquoted per well of a 96-well plate. Subsequently, the hPBMCs were incubated for 4-5 hours at 37° C., 5% CO2 (During the incubation, the monocytes adhered to the bottom of 96-well plastic culture plate). Following the incubation, the non-adherent lymphocytes were washed with assay medium and the adherent monocytes re-fed with assay medium. After a 48-hour incubation period (37° C., 5% CO2), monocytes were pretreated with various concentrations of representative compounds of present invention (refer to table 6 and 7) (prepared in DMSO) or vehicle (0.5% DMSO) for 30 minutes and stimulated with 1 μg/ml LPS (Escherchia coli 0111:B4, Sigma Chemical Co., St. Louis, Mo.). The incubation was continued for 5 hours at 37° C., 5% CO2. Supernatants were harvested, assayed for IL-6 and TNF-α by ELISA as described by the manufacturer (BD Biosciences, USA). Dexamethasone (10 μM) was used as standard for this assay. […] Biological results for both IL-6 and TNFα are indicated in Table 6 and Table 7 respectively.

HCT116 = assay: Cytotoxicity assay (propidium iodide), HCT116; conditions: Homo sapiens, HCT-116; HCT116 (C4b, colon); 48 hours
IL-8 = assay: Synovial tissue assay, IL-8; conditions: Homo sapiens; synovial tissue cells from rheumatoid arthritis patients, 16 hours
Experimental: as §1, §2, §3

PANC 1 = assay: Cytotoxicity assay (propidium iodide), PANC 1; conditions: Homo sapiens; PANC 1 (C5a, pancreatic); 48 hours
Experimental: as §4

A2780 = assay: Cytotoxicity assay (propidium iodide), A2780; conditions: Homo sapiens; A2780 (C3a, ovarian); 48 hours
IL-6 [4] = assay: Human monocyte assay, LPS-stimulated IL-6; conditions: Monocyte; human monocytes, 1 μg/ml LPS, 5 hours
Summary of the method: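 Adherent human PBMC-derived monocytes (2×10^4/well) were cultured 48 h, preincubated 30 min with compound or 0.5% DMSO, then stimulated with 1 μg/ml E. coli LPS for 5 h at 37° C. TNF-α and IL-6 in supernatants were measured by ELISA.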

SKOV3 = assay: Cytotoxicity assay (propidium iodide), SKOV3; conditions: Homo sapiens, SK-OV-3; SKOV3 (C3b, ovarian); 48 hours
Experimental: as §4

IC50 (IL-6 [1])	IC50 (TNF-α [2])	pIC50 (TNF-α [3])	IC50 (IL-8)	IC50 (IL-6 [4])	Compound	pIC50 (CAPAN1)	pIC50 (HCT116)	pIC50 (PANC 1)	pIC50 (A2780)	pIC50 (SKOV3)
0.01 to 0.3 µM	0.01 to 0.3 µM	4.82 to 6.00	0.3 to 3 µM	0.001 to 5 µM	CN(N=Cc1cnc2ccc(-c3cccnc3)cn12)S(=O)(=O)c1cccc(F)c1 [Example 5, 3-Fluoro-N-methyl-N′-((6-(pyridine-3-yl)imidazo[1,2-a]pyridine-3-yl)methylene)benzenesulfonohydrazide]	5.30 to 8.00	5.30 to 8.00	5.30 to 8.00	5.30 to 8.00	5.30 to 8.00
0.3 to 3 µM	0.01 to 0.3 µM	6.00 to 9.00	0.3 to 3 µM	0.001 to 5 µM	CN(N=Cc1cnc2ccc(-c3cccnc3)cn12)S(=O)(=O)c1ccc(F)cc1 [Example 6, 4-Fluoro-N-methyl-N′-((6-(pyridine-3-yl)imidazo[1,2-a]pyridine-3-yl)methylene)benzenesulfonohydrazide]	5.30 to 8.00	5.30 to 8.00	5.30 to 8.00	5.30 to 8.00	
0.01 to 0.3 µM	0.01 to 0.3 µM	6.00 to 9.00	0.3 to 3 µM	0.001 to 5 µM	CN(N=Cc1cnc2ccc(-c3cccnc3)cn12)S(=O)(=O)c1cc(F)cc(F)c1 [Example 16, 3,5-Difluoro-N-methyl-N′-((6-(pyridine-3-yl)imidazo[1,2-a]pyridine-3-yl)methylene) benzenesulfonohydrazide]					
0.01 to 0.3 µM	0.01 to 0.3 µM	6.00 to 9.00	0.01 to 0.3 µM	0.001 to 5 µM	Cc1ccc(F)cc1S(=O)(=O)N(C)N=Cc1cnc2ccc(-c3cccnc3)cn12 [Example 21, 5-Fluoro-N, 2-dimethyl-N′-((6-(pyridine-3-yl)imidazo[1,2-a]pyridine-3-yl)methylene) benzenesulfonohydrazide]	5.30 to 8.00	5.30 to 8.00	5.30 to 8.00	5.30 to 8.00	5.30 to 8.00
0.01 to 0.3 µM	0.01 to 0.3 µM		0.3 to 3 µM	0.001 to 5 µM	Cc1ccc([N+](=O)[O-])cc1S(=O)(=O)N(C)N=Cc1cnc2ccc(-c3cccnc3)cn12 [Example 25]	5.30 to 8.00	5.30 to 8.00	5.30 to 8.00	5.30 to 8.00	5.30 to 8.00
